According to patent US20100254940A1, “Compositions and Methods for Regulating an Immune Response in a Subject” (INNATE PHARMA, S.A., priority 2002, published 2010):
Several values for one entry are separate records, joined by “and”; a condition that tells them apart may be missing. Equal values may be shown once.

How the values were obtained:
Vg9Vd2 T cells = assay: Peripheral Vg9Vd2 T cell expansion in cynomolgus monkeys by flow cytometry (BrHPP non-GLP studies); format: in vivo, cynomolgus monkeys (M. fascicularis); details: for Absolute increase of Vg9Vd2: individual animals
Protocol: • Group 1: 5 purpose bred healthy male cynomolgus monkeys (M. fascicularis), supplied by C.R.P. Le Vallon, Ferney S.E., Mahebourg, Mauritius. At the beginning of the study, body weights range from 3.7 to 4.6 kg. • Group 2: 10 purpose bred healthy cynomolgus monkeys (5 males and 5 females), supplied by C.R.P. Le Vallon. At the beginning of the study, body weights range from 1.8 to 3.5 kg and ages from 2 to 3 years.
• Group 1: animals were anaesthetised with intra-muscular injection of 6 mg/kg ZoletilND 100 (Tiletamine-Zolazepam, Virbac, Carros, France) before any injection or blood taking. • Group 2: injections and blood taking were performed on manually restrained non-anaesthetised animals. • 4-day BrHPP alone treatment (group 1): 2 animals received 1 mg/kg of BrHPP in 10 ml saline on day 0 (microflex infusion set introduced into the external saphenous vein) and then 4 mg/kg, 16 mg/kg and 32 mg/kg in 20 ml saline on days 1, 2 and 3 by the same way. (Duration of infusion: 10 to 15 min). • BrHPP/IL2 co-treatments (group 1): 5 animals received either 20 mg/kg once or 4 mg/kg (16.7 mg/kg or 3.3 mg/kg of BrHPP anionic form) 5 times daily of BrHPP in final 50 ml saline by the same way as above (duration of infusion: 30 min). IL2 (18 million UI per vial, Proleukin®, Chiron, US) was resuspended in 1 ml sterile water and diluted to 10 ml with 4% HSA for a final concentration of 1.8 million UI/ml. In a first cycle of treatment, all animals received the same dose of IL2 consisting of 5 days of twice daily injections of 0.9 million units IL2. In a second cycle of treatment, animals received subcutaneously the following IL2 treatment: 0.15 million units twice daily for 9 days (animal Z059), 0.3 million units twice daily for 5 days (Z135), 0.9 million units twice daily for 5 days (animal Z714) or 9 days (animal X973).
A single animal received 80 mg/kg (66.6 mg/kg anionic form) BrHPP+9 days of IL2 co-treatment consisting of a single daily subcutaneous injection of 0.6 million units. • BrHPP/IL2 co-treatments (group 2): BrHPP was diluted in saline to the appropriate final concentration (depending on the dose to inject and on the last recorded body weight) so as to inject always approximately 50 ml in 30 min (microflex infusion set introduced into cephalic or external saphenous vein). All animals received 0.6 million IU IL2 per day for 7 days. IL2 was administered subcutaneously as 2 separate injections of 0.3 million IU IL2 in sterile water, 8-hour apart. Control animals received IL2 only.
Twice weekly blood samples (1 to 4 ml) were withdrawn from femoral vessels/artery into EDTA containing tubes. Tubes were shipped overnight at room temperature (RT) before flow cytometry analyses.
Peripheral γδ lymphocytes were analysed twice weekly by flow cytometry on total monkey blood, after double staining with anti-CD3-PE antibody and anti-Vgamma9-FITC antibodies and/or anti Vd2 antibodies (CD3-PE: SP34 clone, BD Biosciences Pharmingen, Le Pont de Claix, France). Anti Vgamma 9, clone 7B6 is a monoclonal raised to human Vgamma 9 but that cross-reacts with cynomolgus cells. It was purified by affinity chromatography on protein A and coupled to FITC as previously described.
Briefly, 50 μl monkey blood is incubated 15 min at RT with 5 μl anti-CD3-PE and 6 μl anti-delta2-FITC or 10 μl anti-gamma9-FITC antibodies. Antibodies are washed with 3 ml 1×PBS, centrifuged for 4 min at 1300 rpm at RT and supernatant is discarded. Red cells are lysed with the OptiLyse C reagent (Immunotech-Beckman-Coulter, Marseilles, France) according to the manufacturer's instructions. At the final step, stained white blood cells are recovered by centrifugation and resuspended in 300 μl PBS+0.2% PFA.

[1] = Two-phase repeated dose toxicity study in cynomolgus monkeys, i.v. BrHPP; format: in vivo
Protocol: The objective of the first phase of this non GLP study was to determine BrHPP Maximum Tolerated Dose (MTD) in a group of two cynomolgus monkeys (one male, one female) by escalating doses. The second objective of this study was to characterize the toxicity of daily i.v. administration of Phosphostim for two weeks in two cynomolgus monkeys (one male, one female) at the MTD determined during the first phase of the study. The animals were treated at increasing dose-levels every 3 or 4 days (phase 1) and then at the estimated Maximum Tolerated Dose (MTD) daily for 2 weeks (phase 2).
A total of four cynomolgus monkeys (two males and two females) were divided into 2 groups and treated with BrHPP, by intravenous administration over a 1-hour infusion period as follows:
Group 1 (one male and one female) were administered BrHPP and/or Phosphostim (BrHPP, 200 mg) i.v. at increasing dose-levels (160, 400, 600, 900 and 1200 mg/kg) every 3 or 4 days. Anionic form BrHPP equilvalent to these doses are respectively: 96, 240, 360, 540 and 720 mg/kg. BrHPP was given as a solution after reconstitution in water for injection finally diluted in Ringer lactate under a dose volume of 4, 10 or 15 mL/kg.
Group 2 (one male and one female) were administered BrHPP i.v. daily at 900 mg/kg/day (540 mg/kg/day in anionic form BrHPP equivalent) for 2 weeks.
The animals were checked daily for mortality and clinical signs. Body weight was recorded pre-study and on the day of each administration in phase 1 or twice weekly throughout phase 2, and including on the day of necropsy for phase 2. Food consumption was estimated daily, starting at least 7 days pre-phase. Hematological, blood biochemical and/or peripheral blood lymphocyte subset analysis investigations were performed pre-study, on the day of each administration in phase 1, on day 7 in phase 2 and at the end of both phases. Electrocardiographic and blood pressure recordings were performed pre-study, on the day of each administration in phase 1 and on day 1 and at the end of treatment in phase 2. Blood, for determination of plasma levels of the test item, was sampled on days 1 and 14 in phase 2. On completion of each phase, animals were submitted to a complete macroscopic post-mortem examination and specified tissues preserved. In phase 2, selected body organs were weighed and microscopic examination of selected tissues was performed for all animals.

[2] = highest concentration (160 mg/kg), second injection + IL2

Substance: 3-(bromomethyl)-3-butanol-1-yl-diphosphate [BrHPP]
- % and absolute numbers of Vg9Vd2 (Vg9Vd2 T cells; 0.2 mg/kg + IL2 7 days): undistinguishable from the control animals
- peak of increase in peripheral γδ cells (Vg9Vd2 T cells; 20 mg/kg once or 4 mg/kg x 5 + IL2, group 1): 7 days
- % and absolute numbers of Vg9Vd2 (Vg9Vd2 T cells; 4 to 80 mg/kg + IL2, day 7): A dose range effect was observed
- expansion at recall (Vg9Vd2 T cells; first 20 mg, then 80 mg): expansions comparable to animals treated with 80 mg/kg at the first injection
- expansion at recall (Vg9Vd2 T cells; first 80 mg/kg, then 20 mg/kg, vs first injection at 20 mg/kg): decreased expansion
- % of Vg9Vd2 (Vg9Vd2 T cells; five daily injection of 0.2 mg/kg BrHPP alone, 4 monkeys): expansion was not significant
- Follow up of Vg9Vd2 (Vg9Vd2 T cells; four daily injections 1, 4, 16, 32 mg/kg BrHPP alone, two animals): a decrease at day two post first injection
- increase of Vg9Vd2 (Vg9Vd2 T cells; fourth injection of 80 mg/kg BrHPP and IL2, five animals): detectable increase of Vg9Vd2 although lower than that obtained in the third injection
- absolute numbers of Vg9Vd2 (mean) (Vg9Vd2 T cells; [2]): 10,000 Vg9Vd2 cells/mm3
- level of circulating Vg9Vd2 among circulating CD3 positive cells (Vg9Vd2 T cells; [2]): about 80%
- Absolute increase of Vg9Vd2 (Vg9Vd2 T cells; same dose split in 5 daily injections of 4 mg/kg + IL2 5 days, 4 mg/kg): 8 × and 18 ×
- amplification rate at the second injection vs first (Vg9Vd2 T cells; second single shot 20 mg/kg + IL2, animals with 5 daily 4 mg/kg at first injection): slightly higher amplification rate
- amplification rate in the second injection vs first (Vg9Vd2 T cells; second single shot 20 mg/kg + IL2, animals with single shot at first injection): slightly reduced amplification rate
- Absolute increase of Vg9Vd2 (Vg9Vd2 T cells; single dose 20 mg/kg + IL2 5 days, 20 mg/kg): 30 × and 40 ×
- increase of Vγ9Vδ2 (Vg9Vd2 T cells; third cycle 80 mg/kg + IL2, control animal which received only IL2 in first two courses): around 40
- increase of Vγ9Vδ2 at the third injection (Vg9Vd2 T cells; third injection 80 mg/kg + IL2, animal 2034): 28 ×
- amplification of Vγ9Vδ2 (Vg9Vd2 T cells; third injection 80 mg/kg + IL2, three other animals): lower than 40
- mean increase of peripheral γδ cell number (Vg9Vd2 T cells; total amount of 20 mg/kg BrHPP + IL2, day 7): 24 fold
- macroscopic post-mortem examination ([1]; Phase 1 or Phase 2): No relevant findings
- lymphocyte count ([1]; Phase 2, 900 mg/kg/day 2 weeks): increased lymphocyte count was noted in both animals
- clinical signs ([1]; both treatment phases): no relevant clinical signs were noted
- blood pressure ([1]; either phase): did not affect blood pressure
- body weight evolution ([1]; either phase): had no effect on the body weight evolution
- food consumption ([1]; either phase): unaffected
- hematological or blood chemistry changes ([1]; phase 1, 160-1200 mg/kg): No treatment related hematological or blood chemistry changes
- mortality ([1]; phase 1: 160-1200 mg/kg every 3 or 4 days, phase 2: 900 mg/kg/day 2 weeks): No unscheduled death occurred
- absolute thymus weight ([1]; phase 2, female): slightly lower absolute thymus weight
- microscopic findings, female ([1]; phase 2, female): Lymphoid depletion was seen in the thymus and mesenteric lymph node
- microscopic findings, male ([1]; phase 2, male): increase of follicular germinal center in the mesenteric lymph node
